Assays:
[1] = target: NA activity of rgPR8(H275Y) (Influenza A virus, UniProt P03468, H260Y); format: biochemical
[2] = target: NA activity of influenza virus PR8 (Influenza A virus, UniProt P03468); format: biochemical

## O=C(O)/C=C/c1ccc(O)c(O)c1 [PC8, Caffeic acid]
[1]
  NA inhibitory effect against rgPR8(H275Y): consistent activity
[2]
  NA inhibitory effect against PR8: less potent than that of OSV-C
